The values that follow come from paper PMC8251996 (2021).

Each structure is given as a SMILES string.

The test system of one test is ds6 (DNA, duplex) CGTACG. Put plainly: fluorescence titration, independent equivalent sites. The conditions noted are these: Na+ (100 mM NaCl, 10 mM sodium phosphate); buffer not in material.
Test [1] concerns ds10 (DNA, duplex) AAGAATTCTT
The test is described as above. The conditions noted are these: Na+ (100 mM NaCl, 10 mM sodium phosphate); buffer not in material.

With `COc1cc(/C=C/c2ccc(O)cc2)cc(OC)c1`, the K b result in the test on ds6 (DNA, duplex) CGTACG is “(1.2±0.5)×10^6 M^-1”; in test [1], “(1.6±0.9)×10^6 M^-1”.

For `Oc1ccc(/C=C/c2cc(O)cc(O)c2)cc1`, the K b result is “(1.6±1.4)×10^6 M^-1” in the test with ds6 (DNA, duplex) CGTACG and “(1.6±1.3)×10^6 M^-1” in test [1].
